Source: publication PMC10661773, “Cytotoxic pathways activated by multifunctional thiosemicarbazones targeting sigma-2 receptors in breast and lung carcinoma cells” (Pharmacological Reports, 2023)
Where two headings read alike, the source gives them in different places.

Assays:
A549 cells [1] = assay: Mitochondrial depolarization, JC-1 staining; type: cell-based, human; conditions: A549, 2 h, 50 µM
Method: (§1) Staining with the JC-1 fluorescent probe (Biotium Inc., Freemont, CA; #30,001-30001-T) was performed as described in Riganti et al. 2015 [21]. Fluorescence units were used to calculate the percentage of green-fluorescent (i.e., depolarized) mitochondria vs red-fluorescent (i.e., polarized) mitochondria.

MCF7 cells [2] = assay: Mitochondrial depolarization, JC-1 staining; type: cell-based, human; conditions: MCF7, 2 h, 50 µM
Method: as §1

P-gp = biological target: T1, P-gp (Homo sapiens, UniProt P08183); conditions: cited from earlier work
T1 construct: expressed in transfected cells; host or cells: MDCK-MDR1

MCF7 [3] = assay: Cell viability, MTT assay at 48 h; type: cell-based; conditions: Homo sapiens, MCF7, 48 h, read-out: EC50 ± SEM, tumor cells MCF7
Method: (§2) Human MCF7 breast adenocarcinoma (#HTB-22) and human A549 carcinoma (#CCL-85) cell lines, non-tumor human breast (MCF10A, #CRL-10317) and lung (BEAS-2B, #CRL-9482) cells were obtained from American Type Culture Collection (ATCC, Bethesda, MD). MCF7 cells were cultured in DMEM medium (Gibco Thermo Scientific, Waltham, MA; #10,565,018), A549 in HAM’s F12 medium (Gibco Thermo Scientific; #11,765,054), and BEAS-2B in RPMI-1640 medium (Gibco Thermo Scientific; # 61,870,010), all supplemented with 10% v/v fetal bovine serum (FBS; Sigma, St. Louis, MO; #F4135) and 1% v/v penicillin–streptomycin (Sigma; #P4458). MCF10A cells were cultured in DMEM/F12 medium (Gibco Thermo Scientific; #31,331,028) supplemented with 5% v/v horse serum (Sigma; #H1270) and 1% v/v penicillin–streptomycin, 20 ng/mL epidermal growth factor (Sigma, #E4127), 10 µg/mL insulin (Sigma, #I3536), […] hydrocortisone (Sigma, #H0888), 100 ng/mL cholera toxin (Sigma, #C8052). Cells were kept in a humidified incubator at 37 °C with 5% CO2.
(§3) Cell growth was determined using the MTT assay at 48 h. On day 1, 25,000 cells/well were seeded into 96-well plates in a volume of 100 μL. On day 2, the various drug concentrations (1 μM–100 μM) were added. In all experiments, the various drug solvents (EtOH, Sigma, # E7148; DMSO, Sigma, # D8418) were added to each control to evaluate possible cytotoxicity of the solvent. After the established incubation time with drugs (48 h), MTT (0.5 mg/mL, Sigma # M2003) was added to each well, and after 3–4 h incubation at 37 °C, the supernatant was removed. Formazan crystals were solubilized using 100 μl of DMSO/EtOH (1:1) and absorbance values at 570 and 630 nm were determined on the microplate reader Victor 3 from PerkinElmer Life Sciences (Waltham, MA).

A549 [4] = assay: Cell viability, MTT assay at 48 h; type: cell-based; conditions: Homo sapiens, A549, 48 h, read-out: EC50 ± SEM, tumor cells A549
Method: as §2, §3

MCF10A = assay: Cell viability, MTT assay at 48 h; type: cell-based; conditions: Homo sapiens, MCF-10A, read-out: EC50 ± SEM, normal cells MCF10A
Method: as §2, §3

BEAS-2B = assay: Cell viability, MTT assay at 48 h; type: cell-based; conditions: Homo sapiens, read-out: EC50 ± SEM, normal cells BEAS-2B
Method: as §2, §3

sigma-2 receptors = sigma-2 receptors (Homo sapiens, UniProt Q5BJF2); conditions: read-out: Sigma-2 Affinity Ki; cited from earlier work
caspase 9 in MCF7 cells = assay: Caspase 9 activity, fluorimetric; type: cell-based, human; conditions: MCF7, 2 h, 50 µM
Method: Activation of caspase 3, caspase 7 and caspase 9 was measured using the Caspase 3/7 Fluorescence Assay kit (Cayman Chemical, Ann Arbor, MI; #10,009,135) and the Caspase 9 fluorimetric assay kit (Enzo Life Science, Roma, Italy; #ALX-850-224). The results were expressed as nmoles of the hydrolyzed substrate of each caspase/mg cellular proteins, according to a previously set titration curve.

[5] = test system: GRP78, ATF6, IRE1, PERK in MCF7 cells; assay: ER stress markers, qRT-PCR and immunoblotting; type: cell-based, human; conditions: MCF7, 2 h, 50 µM
Method: 1 μg total RNA was reverse-transcribed using the iScript Reverse Transcription Supermix kit (Bio-Rad Laboratories, Hercules, CA; #1,708,840), according to the manufacturer’s instruction. 25 ng cDNA were amplified with 10 μL IQ™ SYBR Green Supermix (Bio-Rad Laboratories, # 1708880B05). Primers were designed with the qPrimer Depot software (http://primerdepot.nci.nih.gov/). qRT-PCR was carried out with a CFX96™ Real-Time Detector System (Bio-Rad Laboratories). Cycling conditions were: 30 s at 95 °C, followed by 40 cycles of denaturation (15 s at 95 °C), annealing/extension (30 s at 60 °C). The same cDNA preparation was used to quantify the genes of interest and the housekeeping gene S14, used to normalize gene expression. The relative quantitation of each sample was carried out using the Gene Expression Quantitation software (Bio-Rad Laboratories). Results were expressed in arbitrary units. For each gene, the expression in untreated cells was assumed to be “1”.
Cells were rinsed with ice-cold lysis buffer (50 mM, Tris, 10 mM EDTA, 1% v/v Triton-X100), supplemented with the protease inhibitor cocktail set III (80 μM aprotinin, 5 mM bestatin, 1.5 mM leupeptin, 1 mM pepstatin; Sigma, # 535,140), 2 mM phenylmethylsulfonyl fluoride (Sigma: #P7626) and 1 mM Na3VO4, (Sigma; #S6508) then sonicated and centrifuged at 13,000 × g for 10 min at 4 °C. 20 μg protein extracts were subjected to SDS–PAGE and probed with the antibodies for: GRP78 (#ab21685), ATF6 (#ab122897), IRE-1 (#ab37073), PERK (#ab65142), actin (#ab1801) (all from Abcam, Cambridge, UK), followed by a peroxidase-conjugated secondary antibody (Bio-Rad Laboratories). The membranes were washed with Tris-buffered saline-Tween 0.1% v/v solution, and the proteins were detected by enhanced chemiluminescence (Bio-Rad Laboratories, #1,705,061). The densitometric analysis was performed using the ImageJ software (https://imagej.nih.gov/), calculating the ratio protein of interest/actin band density, putting actin band density as 1 relative unit in each condition. Densitometric analysis and whole blots are included as Supporting Information.

MCF7 and A549 cells = assay: Whole cell ROS, DCFDA-AM probe; type: cell-based, human; conditions: MCF7 and A549, 2 h, 50 µM
Method: (§4) Intramitochondrial reactive oxygen species (ROS) were measured using the MitoSOX fluorescent probe (Invitrogen ThermoScientific, # M36008), according to the manufacturer’s instructions. For total ROS, cells were incubated with 5 µmol/L of 5-(and-6)-chlorometyl-20,70-dichlorodihydro-fluorescein diacetate-acetoxymethyl ester (DCFDA-AM, Sigma, #21,884), as described by Riganti et al. 2015 [21]. The results are expressed as nmoles/mg mitochondrial or cellular proteins, respectively.

A549 [6] = test system: A549; set-up: method as in doi:10.1039/C5RA19857G; conditions: MTT; read-out: EC50, tumor cells A549; cited from earlier work
A549 cells [7] = assay: Mitochondrial ROS, MitoSOX staining; type: cell-based, human; conditions: A549, 2 h, 50 µM
Method: as §4

MCF7 cells [8] = assay: Mitochondrial ROS, MitoSOX staining; type: cell-based, human; conditions: MCF7, 2 h, 50 µM
Method: as §4

MCF7 [9] = test system: MCF7; set-up: method as in doi:10.1039/C5RA19857G; conditions: MTT; read-out: EC50, tumor cells MCF7; cited from earlier work

T1 sequence (P08183 whole entry): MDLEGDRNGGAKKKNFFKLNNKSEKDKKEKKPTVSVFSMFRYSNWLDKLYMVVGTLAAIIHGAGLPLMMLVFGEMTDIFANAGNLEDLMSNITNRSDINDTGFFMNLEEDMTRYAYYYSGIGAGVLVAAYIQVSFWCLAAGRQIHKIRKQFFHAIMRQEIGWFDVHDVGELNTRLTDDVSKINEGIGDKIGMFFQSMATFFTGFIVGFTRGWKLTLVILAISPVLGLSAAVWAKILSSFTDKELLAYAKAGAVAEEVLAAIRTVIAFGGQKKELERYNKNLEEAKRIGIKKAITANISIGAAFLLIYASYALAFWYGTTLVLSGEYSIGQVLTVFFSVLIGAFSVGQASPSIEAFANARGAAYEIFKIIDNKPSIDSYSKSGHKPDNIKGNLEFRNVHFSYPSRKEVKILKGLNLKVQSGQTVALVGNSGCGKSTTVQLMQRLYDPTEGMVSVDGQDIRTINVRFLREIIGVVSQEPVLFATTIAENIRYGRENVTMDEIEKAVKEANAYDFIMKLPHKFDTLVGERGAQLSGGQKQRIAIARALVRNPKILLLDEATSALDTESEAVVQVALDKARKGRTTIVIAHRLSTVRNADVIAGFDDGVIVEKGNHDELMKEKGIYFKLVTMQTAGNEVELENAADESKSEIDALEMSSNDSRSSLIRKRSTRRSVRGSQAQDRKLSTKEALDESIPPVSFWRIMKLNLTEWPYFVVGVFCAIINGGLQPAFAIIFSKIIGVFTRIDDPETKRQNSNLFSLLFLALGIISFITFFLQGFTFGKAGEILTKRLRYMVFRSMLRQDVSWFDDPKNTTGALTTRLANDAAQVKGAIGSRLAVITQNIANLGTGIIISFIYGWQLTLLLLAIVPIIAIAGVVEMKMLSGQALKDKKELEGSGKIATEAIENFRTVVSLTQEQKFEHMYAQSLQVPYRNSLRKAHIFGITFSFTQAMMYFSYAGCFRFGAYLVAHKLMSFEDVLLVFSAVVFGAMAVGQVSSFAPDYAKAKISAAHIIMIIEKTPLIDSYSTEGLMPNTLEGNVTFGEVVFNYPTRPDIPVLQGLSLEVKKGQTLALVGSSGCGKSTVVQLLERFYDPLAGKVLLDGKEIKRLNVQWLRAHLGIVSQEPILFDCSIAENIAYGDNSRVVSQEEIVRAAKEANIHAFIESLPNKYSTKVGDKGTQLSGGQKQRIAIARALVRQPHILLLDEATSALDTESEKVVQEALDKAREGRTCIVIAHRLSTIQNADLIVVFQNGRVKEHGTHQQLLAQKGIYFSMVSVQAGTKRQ
Sequence of sigma-2 receptors (Q5BJF2 whole entry): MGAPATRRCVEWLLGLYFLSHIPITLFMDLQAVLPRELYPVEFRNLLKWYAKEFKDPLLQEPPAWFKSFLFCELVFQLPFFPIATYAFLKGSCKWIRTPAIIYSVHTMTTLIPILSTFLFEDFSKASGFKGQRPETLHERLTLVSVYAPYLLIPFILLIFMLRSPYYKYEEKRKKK

## CN(C)C(=S)N/N=C1\C(=O)Nc2ccccc21 [ACThio1, (Z)-N,N-dimethyl-2-(2-oxoindolin-3-ylidene)hydrazinecarbothioamide]
A549 cells [1]
  Mitochondrial depolarization (JC-1 staining): did not produce any detectable changes in mitochondrial polarization
MCF7 cells [2]
  Mitochondrial depolarization (JC-1 staining): did not produce any detectable changes in mitochondrial polarization
P-gp
  P-gp Activity EC50: Not Active^d
MCF7 [3]
  EC50: 5.88 ± 1.1 µM
A549 [4]
  EC50: 4.08 ± 0.4 µM
MCF10A
  EC50: 2.09 ± 0.4 µM
BEAS-2B
  EC50: 3.39 ± 0.8 µM
sigma-2 receptors
  Ki: > 10000 nM
Caspase 9 in MCF7 cells
  Rank order of caspase 9 activation: FA4 > MLP44 > PS3 > ACThio1
[5]
  Expression of ER stress markers GRP78, ATF6, IRE1, PERK: no or negligible effect
MCF7 and A549 cells
  ROS levels in whole cells (DCFDA-AM): not significantly increased

## COc1cc2c(cc1OC)CN(CCCCN1C(=O)/C(=N\NC(=S)N(C)C)c3ccccc31)CC2 [MLP44, (Z)-2-(1-(4-(6,7-Dimethoxy-3,4-dihydroisoquinolin-2(1H)-yl)butyl)-2-oxoindolin-3-ylidene)-N,N-dimethylhydrazinecarbothioamide]
A549 cells [1]
  Mitochondrial depolarization (JC-1 staining): totally insensitive
MCF7 cells [2]
  Mitochondrial depolarization (JC-1 staining): strong depolarization
A549 [6]
  EC50: 10.4 µM
P-gp
  EC50: 3040 nM
MCF10A
  EC50: 24.2 ± 0.8 µM
BEAS-2B
  EC50: 11.9 ± 2.1 µM
sigma-2 receptors
  Ki: 34.1 nM
Caspase 9 in MCF7 cells
  Rank order of caspase 9 activation: FA4 > MLP44 > PS3 > ACThio1
[5]
  Expression of ER stress markers GRP78, ATF6, IRE1, PERK: modest effects
MCF7 and A549 cells
  ROS levels in whole cells (DCFDA-AM): variable
A549 cells [7]
  Mitochondrial ROS (MitoSOX): increased
MCF7 cells [8]
  Mitochondrial ROS (MitoSOX): increased
MCF7 [9]
  EC50: 24.6 µM

## CN(C)C(=S)N/N=C1\C(=O)N(CCCCN2CCN(C3CCCCC3)CC2)c2ccccc21 [PS3, (Z)-2-[1-[4-(4-cyclohexylpiperazin-1-yl)butyl]-2-oxoindolin-3-ylidene]-N,N-dimethylhydrazinecarbothioamide]
A549 cells [1]
  Mitochondrial depolarization (JC-1 staining): did not produce any detectable changes in mitochondrial polarization
MCF7 cells [2]
  Mitochondrial depolarization (JC-1 staining): did not produce any detectable changes in mitochondrial polarization
A549 [6]
  EC50: 2.2 µM
P-gp
  EC50: 2830 nM
MCF10A
  EC50: 3.03 ± 0.6 µM
BEAS-2B
  EC50: 6.22 ± 1.3 µM
sigma-2 receptors
  Ki: 35.4 nM
Caspase 9 in MCF7 cells
  Rank order of caspase 9 activation: FA4 > MLP44 > PS3 > ACThio1
[5]
  Expression of ER stress markers GRP78, ATF6, IRE1, PERK: modest effects
MCF7 and A549 cells
  ROS levels in whole cells (DCFDA-AM): not significantly increased
MCF7 [9]
  EC50: 1.81 µM
